Source: ChEMBL document CHEMBL3875185, “Structure-anticonvulsant activity studies in the group of (E)-N-cinnamoyl aminoalkanols derivatives monosubstituted in phenyl ring with 4-Cl, 4-CH3 or 2-CH3” (Bioorg Med Chem, 2017)
Activity calls are given as the source filed them. No cut-off for these calls is given here.

Legend:
[1] = molecular target: 5-hydroxytryptamine receptor 7 (Homo sapiens) (UniProt P34969); experiment: Displacement of [3H]LSD from human recombinant 5HT7 receptor expressed in CHO cells at 100 uM measured after 120 mins by scintillation counting method relative to control; assay type: cell-based
Sequence of 5-hydroxytryptamine receptor 7 (Homo sapiens) (P34969 whole entry): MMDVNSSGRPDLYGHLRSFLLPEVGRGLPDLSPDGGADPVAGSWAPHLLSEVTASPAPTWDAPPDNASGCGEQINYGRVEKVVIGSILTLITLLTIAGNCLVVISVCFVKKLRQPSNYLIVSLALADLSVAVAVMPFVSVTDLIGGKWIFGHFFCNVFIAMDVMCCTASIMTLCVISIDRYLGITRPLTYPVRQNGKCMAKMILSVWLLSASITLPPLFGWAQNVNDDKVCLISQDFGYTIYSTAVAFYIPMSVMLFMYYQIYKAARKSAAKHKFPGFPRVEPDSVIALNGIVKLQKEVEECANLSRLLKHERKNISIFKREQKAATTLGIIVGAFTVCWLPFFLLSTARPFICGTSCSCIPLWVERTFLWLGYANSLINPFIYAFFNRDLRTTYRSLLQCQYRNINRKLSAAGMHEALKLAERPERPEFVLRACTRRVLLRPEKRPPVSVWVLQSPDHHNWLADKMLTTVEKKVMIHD

[2] = Protection index, ratio of TD50 for neurotoxicity in ip dosed mouse to ED50 for ip dosed maximal electroshock induced seizure mouse model; assay type: toxicity, organism-based; details: in vivo, read-out: Ratio TD50/ED50
[3] = molecular target: 5-hydroxytryptamine receptor 6 (Homo sapiens) (UniProt P50406); experiment: Displacement of [3H]LSD from human recombinant 5HT6 receptor expressed in CHO cells at 100 uM measured after 120 mins by scintillation counting method relative to control; assay type: cell-based
Sequence of 5-hydroxytryptamine receptor 6 (Homo sapiens) (P50406 whole entry): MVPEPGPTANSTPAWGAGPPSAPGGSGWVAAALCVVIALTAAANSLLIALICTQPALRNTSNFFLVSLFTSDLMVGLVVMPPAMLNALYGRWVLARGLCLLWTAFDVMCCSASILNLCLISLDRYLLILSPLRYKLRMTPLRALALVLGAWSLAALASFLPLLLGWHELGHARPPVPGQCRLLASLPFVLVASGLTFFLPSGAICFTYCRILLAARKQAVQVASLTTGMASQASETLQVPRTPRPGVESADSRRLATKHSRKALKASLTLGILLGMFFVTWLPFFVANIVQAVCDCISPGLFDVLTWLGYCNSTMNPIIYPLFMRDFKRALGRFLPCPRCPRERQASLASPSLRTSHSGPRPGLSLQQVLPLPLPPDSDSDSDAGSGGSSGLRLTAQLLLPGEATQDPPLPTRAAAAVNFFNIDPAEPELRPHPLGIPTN

[4] = system: Mus musculus; experiment: Neurotoxicity in mouse assessed as induction of motor impairment at 100 mg/kg, ip measured at 4 hrs post dose by rotarod method; assay type: toxicity, organism-based; details: in vivo
[5] = system: Mus musculus; experiment: Anticonvulsant activity in ip dosed maximal electroshock induced seizure mouse model assessed as suppression in hindlimb tonic extension by measuring time to peak effect; assay type: functional
[6] = molecular target: Prostaglandin E2 receptor EP2 subtype (Homo sapiens) (UniProt P43116); experiment: Displacement of [3H]PGE2 from human recombinant EP2 receptor expressed in HEK293 cells at 100 uM measured after 120 mins by scintillation counting method relative to control; assay type: cell-based
Sequence of Prostaglandin E2 receptor EP2 subtype (Homo sapiens) (P43116 whole entry): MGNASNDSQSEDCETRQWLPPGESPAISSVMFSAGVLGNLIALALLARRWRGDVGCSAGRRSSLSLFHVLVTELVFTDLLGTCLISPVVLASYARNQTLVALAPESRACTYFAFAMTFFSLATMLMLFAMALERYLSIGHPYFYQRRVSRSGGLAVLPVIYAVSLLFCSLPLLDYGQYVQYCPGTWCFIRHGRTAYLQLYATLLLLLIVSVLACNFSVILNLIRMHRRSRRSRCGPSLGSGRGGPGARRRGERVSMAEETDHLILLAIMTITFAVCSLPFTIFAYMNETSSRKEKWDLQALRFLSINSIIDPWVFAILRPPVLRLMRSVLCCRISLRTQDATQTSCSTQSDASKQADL

[7] = molecular target: Substance-P receptor (Homo sapiens) (UniProt P25103); experiment: Displacement of [125I]BH-SP from NK1 receptor in human U373MG cells at 100 uM measured after 30 mins by scintillation counting method relative to control; assay type: cell-based; details: U-373MG ATCC
Sequence of Substance-P receptor (Homo sapiens) (P25103 whole entry): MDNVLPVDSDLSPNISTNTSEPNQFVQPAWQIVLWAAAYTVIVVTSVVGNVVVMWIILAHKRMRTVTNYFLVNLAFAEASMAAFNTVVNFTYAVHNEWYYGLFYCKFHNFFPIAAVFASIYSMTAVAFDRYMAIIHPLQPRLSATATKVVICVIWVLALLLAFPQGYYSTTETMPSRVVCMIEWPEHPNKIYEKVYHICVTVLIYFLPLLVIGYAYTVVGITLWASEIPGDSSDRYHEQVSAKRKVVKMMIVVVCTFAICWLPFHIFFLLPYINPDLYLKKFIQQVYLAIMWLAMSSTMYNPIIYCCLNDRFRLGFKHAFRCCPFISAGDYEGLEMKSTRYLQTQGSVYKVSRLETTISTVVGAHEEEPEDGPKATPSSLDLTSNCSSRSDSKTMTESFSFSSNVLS

[8] = system: Rattus norvegicus; experiment: Anticonvulsant activity in ip dosed pentylenetetrazole induced seizure Sprague-Dawley rat model assessed as no observable episode of clonic convulsion of at least 5 secs; assay type: functional
[9] = molecular target: D(2) dopamine receptor (Homo sapiens) (UniProt P14416); experiment: Displacement of [3H]methyl-spiperone from human recombinant dopamine D2S receptor expressed in HEK293 cells at 100 uM measured after 60 mins by scintillation counting method relative to control; assay type: cell-based
Sequence of D(2) dopamine receptor (Homo sapiens) (P14416 whole entry): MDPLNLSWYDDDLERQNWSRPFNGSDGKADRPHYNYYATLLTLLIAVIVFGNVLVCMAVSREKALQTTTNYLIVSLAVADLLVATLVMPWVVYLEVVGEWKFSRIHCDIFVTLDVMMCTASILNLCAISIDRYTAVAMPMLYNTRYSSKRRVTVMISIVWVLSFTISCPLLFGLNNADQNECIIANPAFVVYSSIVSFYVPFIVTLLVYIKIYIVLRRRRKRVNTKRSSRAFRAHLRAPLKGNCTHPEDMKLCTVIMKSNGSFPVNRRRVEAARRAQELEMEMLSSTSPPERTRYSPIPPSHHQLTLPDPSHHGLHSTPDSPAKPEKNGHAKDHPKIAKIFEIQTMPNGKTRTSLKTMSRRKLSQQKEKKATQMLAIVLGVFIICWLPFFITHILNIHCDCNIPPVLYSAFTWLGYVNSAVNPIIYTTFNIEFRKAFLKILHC

[10] = system: Mus musculus; experiment: Anticonvulsant activity in 6-Hz induced seizure mouse model assessed as restoration of normal activity within 10 secs from stimulation at 100 mg/kg, ip at 32 mA measured at 0.5 hrs post dose; assay type: functional, organism-based
[11] = molecular target: Sodium-dependent serotonin transporter (Homo sapiens) (UniProt P31645); experiment: Displacement of [3H]imipramine from human recombinant 5HT transporter expressed in CHO cells at 100 uM measured after 60 mins by scintillation counting method relative to control; assay type: cell-based
Sequence of Sodium-dependent serotonin transporter (Homo sapiens) (P31645 whole entry, looked up): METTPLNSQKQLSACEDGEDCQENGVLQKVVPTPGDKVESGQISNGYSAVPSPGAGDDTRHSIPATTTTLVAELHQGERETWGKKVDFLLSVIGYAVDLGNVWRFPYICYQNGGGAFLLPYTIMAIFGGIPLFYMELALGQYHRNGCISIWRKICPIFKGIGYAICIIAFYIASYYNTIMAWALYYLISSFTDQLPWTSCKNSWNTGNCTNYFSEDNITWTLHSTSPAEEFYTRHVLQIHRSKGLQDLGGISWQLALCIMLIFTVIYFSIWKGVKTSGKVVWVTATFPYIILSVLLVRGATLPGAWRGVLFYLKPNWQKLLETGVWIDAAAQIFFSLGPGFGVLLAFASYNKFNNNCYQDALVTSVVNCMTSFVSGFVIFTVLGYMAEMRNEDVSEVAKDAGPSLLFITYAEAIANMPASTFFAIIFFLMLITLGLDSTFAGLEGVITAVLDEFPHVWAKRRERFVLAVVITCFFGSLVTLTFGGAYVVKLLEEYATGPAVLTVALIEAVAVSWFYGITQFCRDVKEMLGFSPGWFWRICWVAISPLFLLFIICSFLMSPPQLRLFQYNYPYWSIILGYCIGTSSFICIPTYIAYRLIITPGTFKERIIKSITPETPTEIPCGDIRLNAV

[12] = molecular target: T1, Muscarinic acetylcholine receptor M4 (Homo sapiens) (UniProt P08173); experiment: Displacement of [3H]4-DAMP from human recombinant M4 receptor expressed in CHO cells at 100 uM measured after 60 mins by scintillation counting method relative to control; assay type: cell-based
T1 sequence (whole entry): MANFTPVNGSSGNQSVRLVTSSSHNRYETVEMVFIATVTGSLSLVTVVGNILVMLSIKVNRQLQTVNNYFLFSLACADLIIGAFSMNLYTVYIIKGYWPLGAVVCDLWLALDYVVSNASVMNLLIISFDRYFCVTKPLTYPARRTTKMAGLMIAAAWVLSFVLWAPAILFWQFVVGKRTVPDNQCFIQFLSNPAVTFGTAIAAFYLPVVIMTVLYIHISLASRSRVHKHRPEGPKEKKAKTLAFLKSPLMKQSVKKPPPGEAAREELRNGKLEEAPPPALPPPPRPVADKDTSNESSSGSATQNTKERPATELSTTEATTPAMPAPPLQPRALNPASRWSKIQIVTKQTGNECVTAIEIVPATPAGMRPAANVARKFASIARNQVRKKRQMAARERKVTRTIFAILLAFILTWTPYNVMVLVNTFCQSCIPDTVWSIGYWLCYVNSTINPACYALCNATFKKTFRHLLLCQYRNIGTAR

[13] = molecular target: Prostacyclin receptor (Homo sapiens) (UniProt P43119); experiment: Displacement of [3H]iloprost from human recombinant IP receptor expressed in HEK293 cells at 100 uM measured after 60 mins by scintillation counting method relative to control; assay type: cell-based
Sequence of Prostacyclin receptor (Homo sapiens) (P43119 whole entry): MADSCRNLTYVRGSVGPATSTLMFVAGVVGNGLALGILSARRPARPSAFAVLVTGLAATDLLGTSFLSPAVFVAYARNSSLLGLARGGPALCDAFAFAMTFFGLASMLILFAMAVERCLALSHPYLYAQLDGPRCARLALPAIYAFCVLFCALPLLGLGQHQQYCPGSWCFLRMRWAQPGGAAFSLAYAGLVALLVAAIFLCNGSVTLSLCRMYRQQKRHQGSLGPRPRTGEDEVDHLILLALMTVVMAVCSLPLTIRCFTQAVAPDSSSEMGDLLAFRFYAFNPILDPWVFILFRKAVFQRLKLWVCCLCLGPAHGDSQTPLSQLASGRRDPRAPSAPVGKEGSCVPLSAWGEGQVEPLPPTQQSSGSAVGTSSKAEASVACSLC

[14] = molecular target: T2, Galanin receptor type 1 (Homo sapiens) (UniProt P47211); experiment: Displacement of [125I]galanin from human recombinant GAL1 receptor expressed in HEK293 cells at 100 uM measured after 60 mins by scintillation counting method relative to control; assay type: cell-based
T2 sequence (whole entry): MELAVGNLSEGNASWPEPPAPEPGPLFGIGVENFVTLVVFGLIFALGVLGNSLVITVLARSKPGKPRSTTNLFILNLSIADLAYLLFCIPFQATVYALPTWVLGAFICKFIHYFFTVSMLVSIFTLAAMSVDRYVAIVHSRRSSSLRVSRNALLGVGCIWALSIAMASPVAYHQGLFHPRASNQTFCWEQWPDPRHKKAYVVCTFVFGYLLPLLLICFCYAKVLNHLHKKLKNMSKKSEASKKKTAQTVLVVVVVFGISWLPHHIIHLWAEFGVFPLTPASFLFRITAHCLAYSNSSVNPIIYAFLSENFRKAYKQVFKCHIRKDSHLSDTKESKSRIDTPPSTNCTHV

[15] = molecular target: T3, Endothelin-1 receptor (Homo sapiens) (UniProt P25101); experiment: Displacement of [125I]endothelin-1 from human recombinant ETA receptor expressed in CHO cells at 100 uM measured after 120 mins by scintillation counting method relative to control; assay type: cell-based
T3 sequence (whole entry): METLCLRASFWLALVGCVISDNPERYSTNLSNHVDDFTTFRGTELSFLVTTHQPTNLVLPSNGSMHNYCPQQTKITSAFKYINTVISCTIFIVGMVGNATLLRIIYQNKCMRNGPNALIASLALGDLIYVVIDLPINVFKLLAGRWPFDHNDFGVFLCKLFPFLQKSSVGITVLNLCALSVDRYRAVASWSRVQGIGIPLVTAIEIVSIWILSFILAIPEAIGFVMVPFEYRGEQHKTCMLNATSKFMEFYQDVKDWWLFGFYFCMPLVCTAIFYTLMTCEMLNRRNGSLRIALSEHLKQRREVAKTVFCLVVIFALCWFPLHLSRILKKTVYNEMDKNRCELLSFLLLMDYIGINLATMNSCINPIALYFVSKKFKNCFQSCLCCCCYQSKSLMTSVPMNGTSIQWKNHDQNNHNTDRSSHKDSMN

[16] = molecular target: 5-hydroxytryptamine receptor 2A (Homo sapiens) (UniProt P28223); experiment: Displacement of [3H]ketanserin from human recombinant 5HT2A receptor expressed in HEK293 cells at 100 uM measured after 60 mins by scintillation counting method relative to control; assay type: cell-based
Sequence of 5-hydroxytryptamine receptor 2A (Homo sapiens) (P28223 whole entry): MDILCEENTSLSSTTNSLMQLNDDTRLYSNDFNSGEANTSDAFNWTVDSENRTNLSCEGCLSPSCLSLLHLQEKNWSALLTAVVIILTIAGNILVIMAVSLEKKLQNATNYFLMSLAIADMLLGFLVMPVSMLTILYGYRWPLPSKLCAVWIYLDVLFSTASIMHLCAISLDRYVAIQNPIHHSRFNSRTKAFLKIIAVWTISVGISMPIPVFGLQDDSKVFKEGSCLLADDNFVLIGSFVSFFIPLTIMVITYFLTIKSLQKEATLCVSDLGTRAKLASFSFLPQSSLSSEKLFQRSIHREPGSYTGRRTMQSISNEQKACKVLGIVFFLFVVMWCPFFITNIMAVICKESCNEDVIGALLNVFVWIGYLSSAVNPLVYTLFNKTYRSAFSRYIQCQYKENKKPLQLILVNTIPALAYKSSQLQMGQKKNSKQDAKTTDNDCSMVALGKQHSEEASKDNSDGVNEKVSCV

[17] = Protection index, ratio of TD50 for neurotoxicity in po dosed Sprague-Dawley rat model to ED50 for po dosed maximal electroshock induced seizure Sprague-Dawley rat model; assay type: toxicity, organism-based; details: in vivo, read-out: Ratio TD50/ED50
[18] = molecular target: D(1B) dopamine receptor (Homo sapiens) (UniProt P21918); experiment: Displacement of [3H]SCH 23390 from human recombinant D5 receptor expressed in GH4 cells at 100 uM measured after 60 mins by scintillation counting method relative to control; assay type: cell-based
Sequence of D(1B) dopamine receptor (Homo sapiens) (P21918 whole entry): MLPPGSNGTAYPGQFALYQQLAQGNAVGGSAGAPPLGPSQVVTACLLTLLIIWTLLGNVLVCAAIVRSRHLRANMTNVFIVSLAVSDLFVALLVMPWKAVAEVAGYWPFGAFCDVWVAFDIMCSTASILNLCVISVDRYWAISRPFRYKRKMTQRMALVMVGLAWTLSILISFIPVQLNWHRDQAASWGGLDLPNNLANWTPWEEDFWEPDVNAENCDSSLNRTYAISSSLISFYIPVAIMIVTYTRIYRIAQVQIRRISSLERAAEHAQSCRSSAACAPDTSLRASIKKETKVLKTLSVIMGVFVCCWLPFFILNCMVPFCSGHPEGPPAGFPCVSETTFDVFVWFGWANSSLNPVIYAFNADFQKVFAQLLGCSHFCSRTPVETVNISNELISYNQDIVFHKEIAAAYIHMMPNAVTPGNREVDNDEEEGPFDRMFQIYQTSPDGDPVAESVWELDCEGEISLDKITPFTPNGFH

[19] = Protection index, ratio of TD50 for neurotoxicity in ip dosed mouse to ED50 for ip dosed 6-Hz induced seizure mouse model at 32 mA; assay type: toxicity, organism-based; details: in vivo, read-out: Ratio TD50/ED50

Structure (SMILES)	inhibition [1] [%]	selectivity ratio [2]	inhibition [3] [%]	Activity [4]	Time [5] [h]	inhibition [6] [%]	inhibition [7] [%]	ED50 [8] [mg/kg]	inhibition [9] [%]	Activity [10]	inhibition [11] [%]	inhibition [12] [%]	inhibition [13] [%]	inhibition [14] [%]	inhibition [15] [%]	inhibition [16] [%]	selectivity ratio [17]	inhibition [18] [%]	selectivity ratio [19]
Cc1ccccc1/C=C/C(=O)N[C@@H](C)CO	26.6	3.53	7	Non-Toxic	0.25	37.8	-5.7	24.6	5	Active	0.9	-3.2	-5	1.4	-1	10.3	> 19.4	8	2.86
CC(O)CNC(=O)/C=C/c1ccc(Cl)cc1 (configuration not stated)	43.5	3.24	4.6	Non-Toxic	0.5	29.7	3.1	56	8.7	Active	-1.9	8.9	1	6.6	9.3	12.2	6.47	13	4.26
CCC(CO)NC(=O)/C=C/c1ccc(Cl)cc1 (configuration not stated)	16.2	3.65	3.7	Non-Toxic	0.25	57.6	3	64.4	1.8	Active	-2.5	1.7	2.3	-1.2	0.3	19.3	5.92	12.3	3.41
